Test results from patent US20180147196A1, “PYRIDIN-3-YL ACETIC ACID DERIVATIVES AS INHIBITORS OF HUMAN IMMUNODEFICIENCY VIRUS REPLICATION” (priority 2015, published 2018).
Read-outs that look alike come from different tables or passages of the source.

System: NL-RLuc virus
Assay: Inhibition of HIV replication (NL-RLuc virus in MT-2 cells, luciferase readout)
Type: cell-based
Details: Human immunodeficiency virus 1, MT2, 120 h
Source text: Inhibition of HIV replication: A recombinant NL-RLuc proviral clone was constructed in which a section of the nef gene from NL4-3 was replaced with the Renilla Luciferase gene. This virus is fully infectious and can undergo multiple cycles of replication in cell culture. In addition, the luciferous reporter provides a simple and easy method for quantitating the extent of virus growth and consequently, the antiviral activity of test compounds. The plasmid pNLRLuc contains the proviral NL-Rluc DNA cloned into pUC18 at the Pvull site. The NL-RLuc virus was prepared by transfection of 293T cells with the plasmid pNLRLuc. Transfections were performed using the LipofectAMINE PLUS kit from Invitrogen (Carlsbad, Calif.) according to the manufacturer and the virus generated was titered in MT-2 cells. For susceptibility analyses, the titrated virus was used to infect MT-2 cells in the presence of compound, and after 5 days of incubation, cells were processed and quantitated for virus growth by the amount of expressed luciferase. Assay media was RPMI 1640 supplemented with 10% heat inactivated fetal bovine serum (FBS), 100 units/ml penicillin G/100 units/ml streptomycin, 10 mM HEPES buffer pH 7.55 and 2 mM L-glutamine. The results from at least 2 experiments were used to calculate the EC50 values. Luciferase was quantitated using the Dual Luciferase kit from Promega (Madison, Wis.). Susceptibility of viruses to compounds was determined by incubation in the presence of serial dilutions of the compound. The 50% effective concentration (EC50) was calculated by using the exponential form of the median effect equation where (Fa)=1/[1+(ED50/drug conc.)^m] (Johnson V A, Byington R T. Infectivity Assay. In Techniques in HIV Research. ed. Aldovini A, Walker BD. 71-76. New York: Stockton Press.1990). Activity equal to A refers to a compound having an EC50<100 nM, while B and C denote compounds having an EC50 between 100 nM and 1 uM (B) or >1 uM (C).

Row | SMILES | EC50 (read-out: Activity) | EC50 (read-out: EC50 μM)
1 | Cc1nc(C)c([C@H](OC(C)(C)C)C(=O)O)c(N2CCC(C)(C)CC2)c1CCc1ccc(-c2ccccc2)cc1 [Example 6, (S)-2-(5-(2-([1,1′-Biphenyl]-4-yl)ethyl)-4-(4,4-dimethylpiperidin-1-yl)-2,6-dimethylpyridin-3-yl)-2-(tert-butoxy)acetic acid] | < 0.1 µM | –
2 | Cc1nc(C)c([C@H](OC(C)(C)C)C(=O)O)c(N2CCC(C)(C)CC2)c1/C=C/CNC(=O)OCc1ccccc1 [Example 17, (S,E)-2-(5-(3-(((Benzyloxy)carbonyl)amino)prop-1-en-1-yl)-4-(4,4-dimethylpiperidin-1-yl)-2,6-dimethylpyridin-3-yl)-2-(tert-butoxy)acetic acid] | < 0.1 µM | –
3 | CCc1c(C)nc(C)c([C@H](OC(C)(C)C)C(=O)O)c1N1CCC(C)(C)CC1 [Example 29, (S)-2-(tert-Butoxy)-2-(4-(4,4-dimethylpiperidin-1-yl)-5-ethyl-2,6-dimethylpyridin-3-yl)acetic acid] | < 0.1 µM | 0.068 µM
4 | Cc1nc(C)c([C@H](OC(C)(C)C)C(=O)O)c(N2CCC(C)(C)CC2)c1C#CC1(O)CCN(Cc2ccccc2)CC1 [Example 2, (S)-2-(5-((1-Benzyl-4-hydroxypiperidin-4-yl)ethynyl)-4-(4,4-dimethylpiperidin-1-yl)-2,6-dimethylpyridin-3-yl)-2-(tert-butoxy)acetic acid] | < 0.1 µM | 0.064 µM
5 | Cc1cc(N2CCC(C)(C)CC2)c([C@H](OC(C)(C)C)C(=O)O)c(C)n1 [Example 27, (S)-2-(tert-Butoxy)-2-(4-(4,4-dimethylpiperidin-1-yl)-2,6-dimethylpyridin-3-yl)acetic acid] | > 1 µM | –
6 | Cc1nc(C)c([C@H](OC(C)(C)C)C(=O)O)c(N2CCC(C)(C)CC2)c1Br [Example 13, (S)-2-(5-Bromo-4-(4,4-dimethylpiperidin-1-yl)-2,6-dimethylpyridin-3-yl)-2-(tert-butoxy)acetic acid] | 0.1 to 1 µM | –
7 | Cc1nc(C)c([C@H](OC(C)(C)C)C(=O)O)c(N2CCC(C)(C)CC2)c1C [Example 26, (S)-2-(tert-Butoxy)-2-(4-(4,4-dimethylpiperidin-1-yl)-2,5,6-trimethylpyridin-3-yl)acetic acid] | < 0.1 µM | 0.097 µM
8 | Cc1nc(C)c([C@H](OC(C)(C)C)C(=O)O)c(N2CCC(C)(C)CC2)c1/C=C/Cc1ccccc1 [Example 9, (S,E)-2-(tert-Butoxy)-2-(4-(4,4-dimethylpiperidin-1-yl)-2,6-dimethyl-5-(3-phenylprop-1-en-1-yl)pyridin-3-yl)acetic acid] | 0.1 to 1 µM | 0.281 µM
9 | Cc1nc(C)c([C@H](OC(C)(C)C)C(=O)O)c(N2CCC(C)(C)CC2)c1C#N [Example 24, (S)-2-(tert-Butoxy)-2-(5-cyano-4-(4,4-dimethylpiperidin-1-yl)-2,6-dimethylpyridin-3-yl)acetic acid] | 0.1 to 1 µM | –
10 | Cc1nc(C)c([C@H](OC(C)(C)C)C(=O)O)c(N2CCC(C)(C)CC2)c1CCc1ccccc1 [Example 12, (S)-2-(tert-Butoxy)-2-(4-(4,4-dimethylpiperidin-1-yl)-2,6-dimethyl-5-phenethylpyridin-3-yl)acetic acid] | 0.1 to 1 µM | –
11 | Cc1nc(C)c([C@H](OC(C)(C)C)C(=O)O)c(N2CCC(C)(C)CC2)c1C1=CCNCC1 [Example 21, (S)-2-(tert-Butoxy)-2-(4-(4,4-dimethylpiperidin-1-yl)-2,6-dimethyl-1′,2′,3′,6′-tetrahydro-[3,4′-bipyridin]-5-yl)acetic acid] | > 1 µM | 2.21 µM
12 | Cc1nc(C)c([C@H](OC(C)(C)C)C(=O)O)c(N2CCC(C)(C)CC2)c1CCCc1ccccc1 [Example 10, (S)-2-(tert-Butoxy)-2-(4-(4,4-dimethylpiperidin-1-yl)-2,6-dimethyl-5-(3-phenylpropyl)pyridin-3-yl)acetic acid] | 0.1 to 1 µM | –
13 | Cc1nc(C)c([C@H](OC(C)(C)C)C(=O)O)c(N2CCC(C)(C)CC2)c1C1=CCC(C(C)(C)C)CC1 (stereo partly drawn) [Example 15, (2S)-2-(tert-Butoxy)-2-(5-(4-(tert-butyl)cyclohex-1-en-1-yl)-4-(4,4-dimethylpiperidin-1-yl)-2,6-dimethylpyridin-3-yl)acetic acid] | 0.1 to 1 µM | –
14 | Cc1nc(C)c([C@H](OC(C)(C)C)C(=O)O)c(N2CCC(C)(C)CC2)c1/C=C/c1ccccc1 [Example 11, (S,E)-2-(tert-Butoxy)-2-(4-(4,4-dimethylpiperidin-1-yl)-2,6-dimethyl-5-styrylpyridin-3-yl)acetic acid] | < 0.1 µM | 0.027 µM
15 | Cc1nc(C)c([C@H](OC(C)(C)C)C(=O)O)c(N2CCC(C)(C)CC2)c1C1CC1 [Example 31, (S)-2-(tert-Butoxy)-2-(5-cyclopropyl-4-(4,4-dimethylpiperidin-1-yl)-2,6-dimethylpyridin-3-yl)acetic acid] | 0.1 to 1 µM | 0.118 µM
16 | Cc1nc(C)c([C@H](OC(C)(C)C)C(=O)O)c(N2CCC(C)(C)CC2)c1/C=C/c1ccc(C(F)(F)F)cc1 [Example 7, (S,E)-2-(tert-Butoxy)-2-(4-(4,4-dimethylpiperidin-1-yl)-2,6-dimethyl-5-(4-(trifluoromethyl)styryl)pyridin-3-yl)acetic acid] | < 0.1 µM | –
17 | Cc1ncc(C2=CCN(CCCc3ccc(F)cc3)CC2)c(N2CCC(C)(C)CC2)c1[C@H](OC(C)(C)C)C(=O)O [Example 32, (S)-2-(tert-Butoxy)-2-(4-(4,4-dimethylpiperidin-1-yl)-1′-(3-(4-fluorophenyl)propyl)-6-methyl-1′,2′,3′,6′-tetrahydro-[3,4′-bipyridin]-5-yl)acetic acid] | < 0.1 µM | 0.002 µM
18 | Cc1nc(C)c([C@H](OC(C)(C)C)C(=O)O)c(N2CCC(C)(C)CC2)c1CCc1ccc(F)cc1 [Example 4, (S)-2-(tert-Butoxy)-2-(4-(4,4-dimethylpiperidin-1-yl)-5-(4-fluorophenethyl)-2,6-dimethylpyridin-3-yl)acetic acid] | < 0.1 µM | –
19 | Cc1nc(C)c([C@H](OC(C)(C)C)C(=O)O)c(N2CCC(C)(C)CC2)c1C1=CCCCC1 [Example 14, (S)-2-(tert-Butoxy)-2-(5-(cyclohex-1-en-1-yl)-4-(4,4-dimethylpiperidin-1-yl)-2,6-dimethylpyridin-3-yl)acetic acid] | 0.1 to 1 µM | 0.136 µM
20 | COC(=O)NC/C=C/c1c(C)nc(C)c([C@H](OC(C)(C)C)C(=O)O)c1N1CCC(C)(C)CC1 [Example 18, (S,E)-2-(tert-Butoxy)-2-(4-(4,4-dimethylpiperidin-1-yl)-5-(3-((methoxycarbonyl)amino)prop-1-en-1-yl)-2,6-dimethylpyridin-3-yl)acetic acid] | 0.1 to 1 µM | –
21 | Cc1nc(C)c([C@H](OC(C)(C)C)C(=O)O)c(N2CCC(C)(C)CC2)c1C#CCOCc1ccccc1 [Example 1, (S)-2-(5-(3-(Benzyloxy)prop-1-yn-1-yl)-4-(4,4-dimethylpiperidin-1-yl)-2,6-dimethylpyridin-3-yl)-2-(tert-butoxy)acetic acid] | 0.1 to 1 µM | 0.282 µM
22 | Cc1nc(C)c([C@H](OC(C)(C)C)C(=O)O)c(N2CCC(C)(C)CC2)c1CCc1ccc(C(F)(F)F)cc1 [Example 8, (S)-2-(tert-Butoxy)-2-(4-(4,4-dimethylpiperidin-1-yl)-2,6-dimethyl-5-(4-(trifluoromethyl)phenethyl)pyridin-3-yl)acetic acid] | 0.1 to 1 µM | –
23 | Cc1nc(C)c([C@H](OC(C)(C)C)C(=O)O)c(N2CCC(C)(C)CC2)c1/C=C/c1ccc(F)cc1 [Example 3, (S,E)-2-(tert-Butoxy)-2-(4-(4,4-dimethylpiperidin-1-yl)-5-(4-fluorostyryl)-2,6-dimethylpyridin-3-yl)acetic acid] | < 0.1 µM | –
24 | C/C=C/c1c(C)nc(C)c([C@H](OC(C)(C)C)C(=O)O)c1N1CCC(C)(C)CC1 [Example 30, (S,E)-2-(tert-Butoxy)-2-(4-(4,4-dimethylpiperidin-1-yl)-2,6-dimethyl-5-(prop-1-en-1-yl)pyridin-3-yl)acetic acid] | 0.1 to 1 µM | –
25 | Cc1nc(C)c([C@H](OC(C)(C)C)C(=O)O)c(N2CCC(C)(C)CC2)c1C1=CC(CCOc2ccc(F)cc2)C1 (stereo partly drawn) [Example 25, (2S)-2-(tert-Butoxy)-2-(4-(4,4-dimethylpiperidin-1-yl)-5-(3-(2-(4-fluorophenoxy)ethyl)cyclobut-1-en-1-yl)-2,6-dimethylpyridin-3-yl)acetic acid] | < 0.1 µM | –
26 | C=Cc1c(C)nc(C)c([C@H](OC(C)(C)C)C(=O)O)c1N1CCC(C)(C)CC1 [Example 28, (S)-2-(tert-Butoxy)-2-(4-(4,4-dimethylpiperidin-1-yl)-2,6-dimethyl-5-vinylpyridin-3-yl)acetic acid] | 0.1 to 1 µM | –
27 | Cc1nc(C)c([C@H](OC(C)(C)C)C(=O)O)c(N2CCC(C)(C)CC2)c1/C=C/c1ccc(-c2ccccc2)cc1 [Example 5, (S,E)-2-(5-(2-([1,1′-Biphenyl]-4-yl)vinyl)-4-(4,4-dimethylpiperidin-1-yl)-2,6-dimethylpyridin-3-yl)-2-(tert-butoxy)acetic acid] | < 0.1 µM | 0.035 µM
